{"source": "patent US20150218534A1", "about": "“MODIFIED DNA POLYMERASE” (TOYOBO CO., LTD., priority 2012, published 2015)", "molecules": {"B1": {"name": "Pfu Y7A/P36H: modified Pfu DNA polymerase with Y7A and P36H (protein, UniProt P61875 1-775, looked up, variant Y7A P36H)", "DNA polymerase": "MILDVDAITEEGKPVIRLFKKENGKFKIEHDRTFRHYIYALLRDDSKIEEVKKITGERHGKIVRIVDVEKVEKKFLGKPITVWKLYLEHPQDVPTIREKVREHPAVVDIFEYDIPFAKRYLIDKGLIPMEGEEELKILAFDIETLYHEGEEFGKGPIIMISYADENEAKVITWKNIDLPYVEVVSSEREMIKRFLRIIREKDPDIIVTYNGDSFDFPYLAKRAEKLGIKLTIGRDGSEPKMQRIGDMTAVEVKGRIHFDLYHVITRTINLPTYTLEAVYEAIFGKPKEKVYADEIAKAWESGENLERVAKYSMEDAKATYELGKEFLPMEIQLSRLVGQPLWDVSRSSTGNLVEWFLLRKAYERNEVAPNKPSEEEYQRRLRESYTGGFVKEPEKGLWENIVYLDFRALYPSIIITHNVSPDTLNLEGCKNYDIAPQVGHKFCKDIPGFIPSLLGHLLEERQKIKTKMKETQDPIEKILLDYRQKAIKLLANSFYGYYGYAKARWYCKECAESVTAWGRKYIELVWKELEEKFGFKVLYIDTDGLYATIPGGESEEIKKKALEFVKYINSKLPGLLELEYEGFYKRGFFVTKKRYAVIDEEGKVITRGLEIVRRDWSEIAKETQARVLETILKHGDVEEAVRIVKEVIQKLANYEIPPEKLAIYEQITRPLHEYKAIGPHVAVAKKLAAKGVKIKPGMVIGYIVLRGDGPISNRAILAEEYDPKKHKYDAEYYIENQVLPAVLRILEGFGYRKEDLRYQKTRQVGLTSWLNIKKS"}, "B2": {"name": "KOD P36K: modified KOD DNA polymerase with P36K (protein, listed as Thermococcus kodakaraensis)", "chain": "MILDTDYITEDGKPVIRIFKKENGEFKIEYDRTFEKYFYALLKDDSAIEEVKKITAERHGTVVTVKRVEKVQKKFLGRPVEVWKLYFTHPQDVPAIRDKIREHPAVIDIYEYDIPFAKRYLIDKGLVPMEGDEELKMLAFDIETLYHEGEEFAEGPILMISYADEEGARVITWKNVDLPYVDVVSTEREMIKRFLRVVKEKDPDVLITYNGDNFDFAYLKKRCEKLGINFALGRDGSEPKIQRMGDRFAVEVKGRIHFDLYPVIRRTINLPTYTLEAVYEAVFGQPKEKVYAEEITTAWETGENLERVARYSMEDAKVTYELGKEFLPMEAQLSRLIGQSLWDVSRSSTGNLVEWFLLRKAYERNELAPNKPDEKELARRRQSYEGGYVKEPERGLWENIVYLDFRSLYPSIIITHNVSPDTLNREGCKEYDVAPQVGHRFCKDFPGFIPSLLGDLLEERQKIKKKMKATIDPIERKLLDYRQRAIKILANSYYGYYGYARARWYCKECAESVTAWGREYITMTIKEIEEKYGFKVIYSDTDGFFATIPGADAETVKKKAMEFLKYINAKLPGALELEYEGFYKRGFFVTKKKYAVIDEEGKITTRGLEIVRRDWSEIAKETQARVLEALLKDGDVEKAVRIVKEVTEKLSKYEVPPEKLVIHEQITRDLKDYKATGPHVAVAKRLAARGVKIRPGTVISYIVLKGSGRIGDRAIPFDEFDPTKHKYDAEYYIENQVLPAVERILRAFGYRKEDLRYQKTRQVGLSAWLKPKGT"}}, "type_in_all_cases": "biochemical", "key": {"482 bp of human β-globin": {"test_system": "482 bp of human β-globin", "test": "PCR amplification of 482 bp of human β-globin with dUTP in place of dTTP", "parameters": "key to Results of PCR in the presence of dUTP 481 bp: A: Amplified; B: Amplified (faint band); C: Not amplified", "conditions": "for Results of PCR in the presence of dUTP 481 bp: dTTP replaced by dUTP, 35 cycles", "method": "482 bp of human β-globin was amplified to compare the amplification difference between the case of using dTTP and the case of using dUTP in PCR, and the sensitivity to dUTP was examined. For amplification, each enzyme was used after being mixed with 1 μg of a KOD antibody per U of the enzyme. For PCR, components included in KOD-Plus-Ver. 2 (produced by Toyobo Co. Ltd.) were used. General dNTPs (dATP, dTTP, dCTP, dGTP) in an amount of 0.2 mM were added to 50 μl of individual reaction solutions, and dNTPs (dATP, dUTP, dCTP, dGTP) in an amount of 0.2 mM in which dTTP was replaced by dUTP were added to 50 μl of individual reaction solutions. The reaction solutions contained 1× PCR buffer, 1.5 mM MgSO4, primers represented by SEQ ID NOs: 27 and 28 in an amount of 15 pmol for amplifying […], 10 ng of human genomic DNA (produced by Roche), and 1 U of each respective enzyme mixed with the antibody. PCR was performed using a GeneAmp PCR system 9700 (produced by Applied Biosystems) on the following schedule: preliminary reaction at 94° C. for 2 minutes, followed by 35 cycles, each cycle consisting of 98° C. for 10 seconds and 68° C. for 1 minute. After the completion of each individual reaction, each of the resulting reaction solutions was analyzed using to a DNA-1000 kit for MultiNA (produced by Shimadzu Corporation) to confirm amplified DNA fragments. FIGS. 5 and 6 show the results."}, "[1]": {"test_system": "human genomic DNA (about 1.3 kb) with dUTP added", "test": "Evaluation of uracil (dUTP) sensitivity by PCR with dUTP added to the reaction", "conditions": "for Evaluation of dUTP resisitance on a 11-point scale: closer to 0 = stronger sensitivity to dUTP, closer to 10 = lower sensitivity, summary of Examples 1 to 3; for dUTP resistance: dUTP added to 0.5, 5, 50, 100, 200 μM, about 1.3 kb, 30 cycles, 1 U enzyme; for sensitivity to dUTP / amount of amplification, comparison with single mutants or wild type: dUTP added to PCR (FIGS. 3 and 4)", "method": "The uracil sensitivity of the modified DNA polymerase of the present invention can be evaluated by PCR. For example, a dUTP solution is added at a final concentration of 0.5 μM to 200 μM to a common PCR reaction solution containing DNA as a template, a buffer, magnesium, dNTPs, primers, and a DNA polymerase to be evaluated, and thermal cycling is performed. After the reaction, the presence or absence of PCR products is confirmed by ethidium bromide-stained agarose electrophoresis, and the uracil sensitivity can be evaluated by the concentration of accepted dUTP. With a DNA polymerase having high uracil sensitivity, the extension reaction is inhibited by the addition of a small amount of dUTP, and PCR products cannot be confirmed. With a DNA polymerase having low uracil sensitivity, gene amplification by PCR can be confirmed without problem, even if a high concentration of dUTP is added. The modified DNA polymerase with low uracil sensitivity in the present invention refers to a DNA polymerase such that when optimum thermal cycling is performed using any primers and DNA as a template in a reaction buffer optimum for the enzyme, even if a high concentration of dUTP is added, an extension reaction is not inhibited and PCR products can be confirmed, compared to wild-type DNA polymerase, which has no mutation.\nMore specifically, 10× PCR buffer included in KOD-Plus-Ver. 2 (produced by Toyobo Co. Ltd.) or 10× PCR buffer included in Pfu DNA Polymerase (produced by Agilent) is used; dUTP (produced by Roche) is added to 50 μl of individual reaction solutions containing 1× PCR buffer, 1.5 mM MgSO4, dNTPs (dATP, dTTP, dCTP, and dGTP) in an amount of 0.2 mM, primers represented by SEQ ID NOs: 25 and 26 in an amount of 15 pmol for amplifying about 1.3 kb, 10 ng of human genomic DNA (produced by Roche), and 1 U of each respective enzyme, to final concentrations of 0.5, 5, 50, 100, and 200 μM. PCR is performed using a GeneAmp PCR system 9700 (Applied Biosystems) on the following schedule; preliminary reaction at 94° C. for 30 seconds, followed by 30 cycles, each cycle consisting of 98° C. for 10 seconds, 65° C. for 30 seconds, and 68° C. for 1 minute and 30 seconds. After the completion of each individual reaction, 5 μl of each of the resulting reaction solutions is subjected to agarose electrophoresis, followed by ethidium bromide staining. The uracil sensitivity can be evaluated by confirming amplified DNA fragments of about 1.3 kb under ultraviolet irradiation.\nPCR was performed by the following method to evaluate uracil sensitivity. For PCR, components included in KOD-Plus-Ver. 2 (produced by Toyobo Co. Ltd.) were used. dUTP (produced by Roche) was added to 50 μl of individual reaction solutions containing 1× PCR buffer, 1.5 mM MgSO4, dNTPs (dATP, dTTP, dCTP, dGTP) in an amount of 0.2 mM, primers represented by SEQ ID NOs: 25 and 26 in an amount of 15 pmol for amplifying about 1.3 kb, 10 ng of human genomic DNA (produced by Roche), and 1 U of each respective enzyme, to final concentrations of 0.5, 5, 50, 100, and 200 μM. PCR was performed using a GeneAmp PCR system 9700 (produced by Applied Biosystems) on the following schedule: preliminary reaction at 94° C. for 30 seconds, followed by 30 cycles, each cycle consisting of 98° C. for 10 seconds, 65° C. for 30 seconds, and 68° C. for 1 minute and 30 seconds. After the completion of each individual reaction, 5 μl of each of the resulting reaction solutions was subjected to agarose electrophoresis, followed by ethidium bromide staining. Under ultraviolet irradiation, amplified DNA fragments of about 1.3 kb were confirmed. FIGS. 3, 4, 7, and 8 show the results."}, "[2]": {"test_system": "1.3 kbp, 2.8 kbp, and 3.6 kbp of human β-globin", "test": "Amplification of long-chain DNA in PCR using dUTP", "conditions": "1.3, 2.8, 3.6 kbp; 100% dUTP (FIGS. 9 and 10)", "method": "Amplification of 1.3 kbp, 2.8 kbp, and 3.6 kbp of human β-globin in PCR using dUTP was compared. For amplification, each enzyme was used after being mixed with 1 μg of a KOD antibody per U of the enzyme. For PCR, components included in KOD-Plus-Ver. 2 (produced by Toyobo Co. Ltd.) were used. 50 μl of individual reaction solutions containing 1× PCR buffer, 1.5 mM MgSO4, dNTPs (dATP, dUTP, dCTP, dGTP) in an amount of 2 mM in which dTTP was replaced by dUTP, primers in an amount of 15 pmol (SEQ ID NOs: 25 and 26 for amplification of 1.3 kbp; SEQ ID NOs: 26 and 29 for amplification of 2.8 kbp; SEQ ID NOs: 30 and 31 for amplification of 3.6 kbp), 10 ng of human genomic DNA (produced by Roche), and 1 U of each respective enzyme mixed with the antibody were used. PCR was performed using a GeneAmp PCR system 9700 (Applied Biosystems) on the following schedule: preliminary reaction at 94° C. for 2 minutes, followed by 35 cycles, each cycle consisting of 98° C. for 10 seconds, 65° C. for 30 seconds, and 68° C. for about 1 minute per kbp (1 minute and 30 seconds for amplification of 1.3 kbp; 3 minutes for amplification of 2.8 kbp; 4 minutes for amplification of 3.6 kbp). As a control, amplification was also performed using Taq DNA polymerase. Taq DNA polymerase produced by Toyobo Co. Ltd. mixed with Anti-Taq High (produced by Toyobo Co. Ltd.) was used. 50 μl of a reaction solution containing 1× buffer included in Blend Taq, dNTPs (dATP, dUTP, dCTP, dGTP) in an amount of 2 mM in which dTTP was replaced by dUTP, primers in an amount of 10 pmol the same as the above), 10 ng of human genomic DNA (produced by Roche), and 2.5 U of the enzyme mixed with the antibody was used. PCR was performed using a GeneAmp PCR system 9700 (produced by Applied Biosystems) on the following schedule: preliminary reaction at 94° C. for 2 minutes, followed by 35 cycles, each cycle consisting of 94° C. for 30 seconds, 65° C. for 30 seconds, and 68° C. for about 1 minute per kbp (1 minute and 30 seconds for amplification of 1.3 kbp; 3 minutes for amplification of 2.8 kbp; 4 minutes for amplification of 3.6 kbp). After the completion of each individual reaction, 5 μl of each of the resulting reaction solutions was subjected to agarose electrophoresis, followed by ethidium bromide staining, and the amount of amplified DNA fragments was confirmed under ultraviolet irradiation. FIGS. 9 and 10 show the results."}}, "data": [{"molecule": "KOD N210D/P36K: KOD N210D (exo(−)) mutant with P36K", "values": [{"measurement": "Results of PCR in the presence of dUTP 481 bp", "setting": "482 bp of human β-globin", "result": "A"}, {"measurement": "Evaluation of dUTP resisitance on a 11-point scale", "setting": "[1]", "result": 8}, {"measurement": "dUTP resistance", "setting": "[1]", "result": ">200", "unit": "µM"}]}, {"molecule": "KOD Y7A/P36K: modified KOD DNA polymerase with Y7A and P36K", "values": [{"measurement": "PCR amplification of 482 bp with dUTP", "setting": "482 bp of human β-globin; 100% dUTP instead of dTTP (FIGS. 5 to 8)", "result": "allowed for PCR amplification"}, {"measurement": "sensitivity to dUTP / amount of amplification, comparison with single mutants or wild type", "setting": "[1]", "result": "more tolerant of the addition of high concentration of dUTP and provided a larger amount of amplification"}]}, {"molecule": "KOD H147E/P36K: KOD H147E (exo(+)) mutant with P36K", "values": [{"measurement": "Results of PCR in the presence of dUTP 481 bp", "setting": "482 bp of human β-globin", "result": "A"}, {"measurement": "Evaluation of dUTP resisitance on a 11-point scale", "setting": "[1]", "result": 4}, {"measurement": "dUTP resistance", "setting": "[1]", "result": 100, "unit": "µM"}]}, {"molecule": "B1", "values": [{"measurement": "sensitivity to dUTP / amount of amplification, comparison with single mutants or wild type", "setting": "[1]", "result": "provided a larger amount of amplification"}, {"measurement": "amount of amplification of long-chain DNA with dUTP", "setting": "[2]", "result": "provided larger amounts of amplification"}]}, {"molecule": "B2", "values": [{"measurement": "Results of PCR in the presence of dUTP 481 bp", "setting": "482 bp of human β-globin", "result": "A"}, {"measurement": "Evaluation of dUTP resisitance on a 11-point scale", "setting": "[1]", "result": 3}, {"measurement": "dUTP resistance", "setting": "[1]", "result": 100, "unit": "µM"}, {"measurement": "PCR products on addition of dUTP", "setting": "[1]; some amount of dUTP added", "result": "PCR products were confirmed"}]}]}
